In test [1] the target is T1, human sodium channels Nav 1.7 (Homo sapiens, UniProt Q15858).
T1 construct: expressed in transfected cells
Nature of the test: Automated whole-cell voltage-clamp (ScreenPatch 384P) on CHO cells stably expressing Nav 1.7. It is filed as cell-based. As to conditions: inactivation step -40 mV 8 s, test pulse 0 mV, room temperature, exposure at least five minutes, read-out: Nav1.7 IC50. On the procedure: (§1) Biological assays were performed on Chinese hamster ovary (CHO) cells that express human sodium channels Nav 1.8 or Nav 1.7 in a stable manner.
(§2) The experimental protocol voltage-clamp using the whole cell configuration was established on the automated ScreenPatch® 384P platform (SP384PE, Nanion Technologies, Livingston, NJ) and the results were recorded with a Nanion 384-well Patch Clamp chip (NPC) (Nanion Technologies, Livingston, NJ).
(§3) Formula I compounds were diluted in eight concentrations in the extracellular solution composed of physiological saline solution, buffered with HEPES (mM): NaCl, 137; KCl, 4; CaCl2, 3.8; MgCl2, 1; HEPES, 10; Glucose, 10; pH 7.4. The […], 50; CsF, 90; MgCl2, 5; EGTA, 5; HEPES, 10; pH 7.2. The duration of exposure of each compound with cells expressing Nav 1.7 or Nav 1.8 was at least five minutes, and the assays were performed at room temperature.
(§4) The measurements of the sodium currents of Nav 1.8 and Nav 1.7 were obtained using the voltage protocol described below.
(§5) A holding voltage of −100 mV was established followed by an inactivation voltage step at −40 mV for 8 seconds, followed by a step of −100 mV for 20 ms, followed by a 20 ms step for 10 mV for Nav 1.8 or 0 mV for Nav 1.7 (TP1A) before returning to the holding voltage of −100 mV.
(§6) The protocol was repeated at a frequency of 0.05 Hz and the amplitude of the current was quantified throughout the recording of the TP1A phase. The variation in the peak current amplitude was evaluated according to the Formula described below, after exposing the cells expressing the channels to each concentration of the different compounds:
(§7) [formula] • wherein […] and ITP1A,molecule represent the peaks of sodium current input into TP1A before exposure to the compound and in the presence of the compound, respectively.
(§8) The decrease in the peak current amplitude, after the exposure of the cells to the compounds, was used to calculate the percentage of relative blockage of the channels in relation to the positive control according to the Formula below:
(§9) [formula] • where % V and % CP represent the means of the values of current inhibition with a vehicle (DMSO) and positive controls, respectively. The sodium currents of the positive control were considered as 100%:
(§10) [formula] • wherein [Test] represents the concentration of the molecule evaluated, IC50 is the concentration of the compound that generates half of the maximum inhibition, N is Hill's coefficient, and % Blockage' is the percentage of sodium channel current (Nav 1.8 and Nav 1.7) inhibited at each concentration of the molecule evaluated. Data were obtained by nonlinear regression (nonlinear least squares) with XLfit for Excel (Microsoft, Redmond, WA).
(§11) The compounds were tested in at least one assay to obtain the value of CI50. For compounds that were tested in two or more assays, the results are described as the means of the CI50 values.

For test [2], the target named is T2, human sodium channels Nav 1.8 (Homo sapiens, UniProt Q9Y5Y9).
T2 construct: expressed in transfected cells
T2 sequence (Q9Y5Y9 whole entry): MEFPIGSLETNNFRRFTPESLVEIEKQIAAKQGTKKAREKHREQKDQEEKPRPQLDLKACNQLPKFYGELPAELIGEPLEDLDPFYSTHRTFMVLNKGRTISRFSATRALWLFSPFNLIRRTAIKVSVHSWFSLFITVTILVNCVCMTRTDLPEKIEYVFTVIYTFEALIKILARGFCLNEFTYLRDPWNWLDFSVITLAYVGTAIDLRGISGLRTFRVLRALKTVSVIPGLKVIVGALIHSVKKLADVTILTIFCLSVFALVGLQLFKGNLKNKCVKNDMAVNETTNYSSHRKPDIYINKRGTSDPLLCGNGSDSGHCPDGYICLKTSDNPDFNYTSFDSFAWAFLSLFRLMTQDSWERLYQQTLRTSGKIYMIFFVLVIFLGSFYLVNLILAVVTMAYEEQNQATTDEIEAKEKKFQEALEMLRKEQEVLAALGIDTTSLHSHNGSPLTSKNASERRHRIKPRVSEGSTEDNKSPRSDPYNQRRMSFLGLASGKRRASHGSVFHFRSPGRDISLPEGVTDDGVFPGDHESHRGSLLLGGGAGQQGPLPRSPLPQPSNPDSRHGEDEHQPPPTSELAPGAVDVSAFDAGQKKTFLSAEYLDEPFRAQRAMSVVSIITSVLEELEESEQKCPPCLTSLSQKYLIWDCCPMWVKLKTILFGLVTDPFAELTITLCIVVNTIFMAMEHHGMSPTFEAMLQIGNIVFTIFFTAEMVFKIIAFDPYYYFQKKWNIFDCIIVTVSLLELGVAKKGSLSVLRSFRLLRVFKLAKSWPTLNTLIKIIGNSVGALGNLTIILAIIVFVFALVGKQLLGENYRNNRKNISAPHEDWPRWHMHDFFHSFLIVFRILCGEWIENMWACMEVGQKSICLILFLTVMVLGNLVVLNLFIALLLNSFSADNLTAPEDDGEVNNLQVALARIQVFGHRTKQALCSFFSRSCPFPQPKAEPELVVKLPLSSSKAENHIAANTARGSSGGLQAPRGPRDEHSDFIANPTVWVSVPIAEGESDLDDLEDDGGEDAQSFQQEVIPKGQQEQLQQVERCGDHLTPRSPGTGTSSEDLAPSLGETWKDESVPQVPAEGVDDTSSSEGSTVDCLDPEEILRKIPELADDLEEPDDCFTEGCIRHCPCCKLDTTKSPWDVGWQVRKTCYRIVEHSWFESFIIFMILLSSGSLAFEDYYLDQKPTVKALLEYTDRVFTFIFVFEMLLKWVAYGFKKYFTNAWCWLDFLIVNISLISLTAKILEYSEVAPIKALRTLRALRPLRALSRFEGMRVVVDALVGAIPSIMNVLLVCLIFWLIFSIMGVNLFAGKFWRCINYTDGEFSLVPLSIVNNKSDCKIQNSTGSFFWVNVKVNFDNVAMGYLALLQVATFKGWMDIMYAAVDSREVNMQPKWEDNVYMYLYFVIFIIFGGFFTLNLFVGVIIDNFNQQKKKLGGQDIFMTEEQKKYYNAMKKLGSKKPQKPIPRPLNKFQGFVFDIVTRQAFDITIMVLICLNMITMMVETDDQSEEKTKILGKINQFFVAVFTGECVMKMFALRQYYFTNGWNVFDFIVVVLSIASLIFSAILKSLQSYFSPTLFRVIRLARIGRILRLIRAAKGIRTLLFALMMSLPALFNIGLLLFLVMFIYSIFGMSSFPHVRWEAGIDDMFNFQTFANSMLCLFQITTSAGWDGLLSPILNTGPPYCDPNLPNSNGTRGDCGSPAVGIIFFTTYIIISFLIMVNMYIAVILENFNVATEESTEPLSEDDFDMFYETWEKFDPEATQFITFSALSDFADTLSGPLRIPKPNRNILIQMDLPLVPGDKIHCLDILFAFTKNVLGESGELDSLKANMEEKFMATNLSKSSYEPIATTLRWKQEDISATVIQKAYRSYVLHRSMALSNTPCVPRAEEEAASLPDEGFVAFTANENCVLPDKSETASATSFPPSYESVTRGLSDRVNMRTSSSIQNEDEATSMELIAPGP
Nature of the test: Automated whole-cell voltage-clamp (ScreenPatch 384P) on CHO cells stably expressing Nav 1.8. As to conditions: inactivation step -40 mV 8 s, test pulse 10 mV, room temperature, exposure at least five minutes, read-out: Nav1.8 IC50. The format is cell-based. The procedure: as §1, §2, §3, §4, §5, §6, §7, §8, §9, §10, §11

T1 sequence (Q15858 whole entry): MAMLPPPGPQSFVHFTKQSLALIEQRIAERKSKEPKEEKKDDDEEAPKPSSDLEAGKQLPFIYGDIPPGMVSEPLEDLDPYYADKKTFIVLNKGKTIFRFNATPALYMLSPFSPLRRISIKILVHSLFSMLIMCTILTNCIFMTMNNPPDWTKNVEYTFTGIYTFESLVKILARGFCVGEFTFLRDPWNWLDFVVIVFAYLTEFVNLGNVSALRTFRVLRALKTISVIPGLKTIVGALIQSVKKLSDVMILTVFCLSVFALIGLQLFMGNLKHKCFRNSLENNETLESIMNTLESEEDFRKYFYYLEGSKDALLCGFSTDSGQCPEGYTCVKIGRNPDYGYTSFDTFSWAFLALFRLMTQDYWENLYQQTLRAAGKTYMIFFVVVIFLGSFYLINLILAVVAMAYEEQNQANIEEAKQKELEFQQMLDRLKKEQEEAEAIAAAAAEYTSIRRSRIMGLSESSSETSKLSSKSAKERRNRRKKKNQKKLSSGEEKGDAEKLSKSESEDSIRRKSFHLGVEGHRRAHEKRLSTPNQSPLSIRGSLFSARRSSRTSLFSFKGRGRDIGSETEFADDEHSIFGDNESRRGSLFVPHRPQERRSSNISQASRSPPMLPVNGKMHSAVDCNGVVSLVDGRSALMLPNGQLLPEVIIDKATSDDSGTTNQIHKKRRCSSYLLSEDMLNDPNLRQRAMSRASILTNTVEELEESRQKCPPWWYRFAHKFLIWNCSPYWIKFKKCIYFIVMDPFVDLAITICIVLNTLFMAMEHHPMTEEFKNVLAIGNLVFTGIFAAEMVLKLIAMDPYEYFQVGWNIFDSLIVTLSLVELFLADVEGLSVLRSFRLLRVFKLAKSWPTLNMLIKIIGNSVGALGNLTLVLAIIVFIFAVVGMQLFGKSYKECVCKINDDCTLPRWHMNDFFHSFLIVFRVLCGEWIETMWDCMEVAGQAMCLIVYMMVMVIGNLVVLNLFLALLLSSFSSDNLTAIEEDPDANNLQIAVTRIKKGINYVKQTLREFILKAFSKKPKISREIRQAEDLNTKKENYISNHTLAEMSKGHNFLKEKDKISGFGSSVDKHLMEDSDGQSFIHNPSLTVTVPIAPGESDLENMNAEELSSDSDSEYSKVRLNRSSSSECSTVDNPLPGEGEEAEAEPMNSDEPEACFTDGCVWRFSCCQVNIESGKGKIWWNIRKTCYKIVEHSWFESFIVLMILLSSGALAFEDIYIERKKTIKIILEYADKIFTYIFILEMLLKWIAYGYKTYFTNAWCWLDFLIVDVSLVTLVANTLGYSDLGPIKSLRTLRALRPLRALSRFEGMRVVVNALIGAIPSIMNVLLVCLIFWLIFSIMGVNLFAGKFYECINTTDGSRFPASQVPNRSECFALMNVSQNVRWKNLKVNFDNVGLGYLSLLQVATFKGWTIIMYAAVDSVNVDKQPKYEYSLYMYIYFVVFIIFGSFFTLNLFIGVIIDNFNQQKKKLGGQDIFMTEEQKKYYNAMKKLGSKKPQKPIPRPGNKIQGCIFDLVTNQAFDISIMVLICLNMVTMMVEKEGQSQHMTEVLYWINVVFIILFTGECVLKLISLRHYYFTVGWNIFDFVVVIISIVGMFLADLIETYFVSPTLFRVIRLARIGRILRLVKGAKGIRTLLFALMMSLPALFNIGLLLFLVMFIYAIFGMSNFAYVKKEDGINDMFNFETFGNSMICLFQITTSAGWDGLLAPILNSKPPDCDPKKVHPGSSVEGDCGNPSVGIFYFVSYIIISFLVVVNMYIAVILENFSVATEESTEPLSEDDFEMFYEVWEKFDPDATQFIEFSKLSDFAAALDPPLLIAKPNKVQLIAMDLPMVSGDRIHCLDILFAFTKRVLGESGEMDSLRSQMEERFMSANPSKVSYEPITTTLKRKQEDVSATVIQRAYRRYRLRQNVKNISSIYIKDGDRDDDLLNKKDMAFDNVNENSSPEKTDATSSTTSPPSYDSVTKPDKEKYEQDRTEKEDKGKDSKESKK

As to `COc1cc(/C=N/NC(=O)c2cncc(-c3ccc(O)cc3)n2)cc(OC)c1` [Compound 1, (E)-N′-(3,5-dimethoxybenzylidene)-6-(4-hydroxyphenyl)pyrazine-2-carbohydrazide], the IC50 in test [1] and in test [2] was > 1 µM throughout.
With `Cc1cc(C)cc(/C=N/NC(=O)c2cncc(-c3ccc(O)cc3)n2)c1` [Compound 2, (E)-N′-(3,5-dimethylbenzylidene)-6-(4-hydroxyphenyl)pyrazine-2-carbohydrazide], the IC50 in test [1] and in test [2] was > 1 µM in each case.
`COc1ccc(F)c(/C=N/NC(=O)c2cncc(-c3ccc(O)cc3)n2)c1` [Compound 3, (E)-N′-(2-fluoro-5-methoxybenzylidene)-6-(4-hydroxyphenyl)pyrazine-2-carbohydrazide]: the IC50 in test [1] and in test [2] was > 1 µM in each case.
As to `O=C(N/N=C/c1cncc(O)c1)c1cncc(-c2ccc(O)cc2)n1` [Compound 4, (E)-6-(4-hydroxyphenyl)-N′-((5-hydroxypyridine-3-yl)methylene)pyrazine-2-carbohydrazide], the IC50 in test [1] and in test [2] was > 1 µM throughout.
In the case of `COc1cc(/C=N/NC(=O)c2cncc(-c3ccc(OC)cc3O)n2)cc(OC)c1` [Compound 5, (E)-N′-(3,5-dimethoxybenzylidene)-6-(2-hydroxy-4-methoxyphenyl)pyrazine-2-carbohydrazide], the IC50 in test [1] is > 1 µM; in test [2] it was < 0.5 µM.
Consider `COc1cc(/C=N/NC(=O)c2cncc(-c3ccc(OC)c(O)c3)n2)cc(OC)c1` [Compound 6, (E)-N′-(3,5-dimethoxybenzylidene)-6-(3-hydroxy-4-methoxyphenyl)pyrazine-2-carbohydrazide], for which the IC50 in test [1] and in test [2] was > 1 µM in each case.
For the compound `COc1ccc(-c2cncc(C(=O)N/N=C/c3cc(C)cc(C)c3)n2)c(O)c1` [Compound 7, (E)-N′-(3,5-dimethylbenzylidene)-6-(2-hydroxy-4-methoxyphenyl)pyrazine-2-carbohydrazide], the IC50 is > 1 µM in test [1] and < 0.5 µM in test [2].
On the same counts, the results for `CCOc1ccc(-c2cncc(C(=O)N/N=C/c3cc(OC)ccc3F)n2)c(O)c1` [Compound 8, (E)-6-(4-ethoxy-2-hydroxyphenyl)-N′-(2-fluoro-5-methoxybenzylidene)pyrazine-2-carbohydrazide] are > 1 µM and 0.5 to 1 µM.
As for `CCOc1ccc(-c2cncc(C(=O)N/N=C/c3cc(OC)cnc3F)n2)c(O)c1` [Compound 9, (E)-6-(4-ethoxy-2-hydroxyphenyl)-N′-((2-fluoro-5-methoxypyridine-3-yl)methylene)pyrazine-2-carbohydrazide], the values for the IC50 in test [1] and in test [2] were > 1 µM and < 0.5 µM, respectively.
The matching figures for `COc1ccc(-c2nc(C(=O)N/N=C/c3cc(OC)cc(OC)c3)cnc2O)cc1` [Compound 12, (E)-N′-(3,5-dimethoxybenzylidene)-5-hydroxy-6-(4-methoxyphenyl)pyrazine-2-carbohydrazide]: > 1 µM and > 1 µM.
The matching figures for `COc1ccc(-c2nc(C(=O)N/N=C/c3cc(C)cc(C)c3)cnc2O)cc1` [Compound 13, (E)-N′-(3,5-dimethylbenzylidene)-5-hydroxy-6-(4-methoxyphenyl)pyrazine-2-carbohydrazide]: > 1 µM and > 1 µM.
For `COc1ccc(-c2cnc(O)c(C(=O)N/N=C/c3cc(OC)cc(OC)c3)n2)cc1` [Compound 14, (E)-N′-(3,5-dimethoxybenzylidene)-3-hydroxy-6-(4-methoxyphenyl)pyrazine-2-carbohydrazide], the IC50 in test [1] and in test [2] was > 1 µM throughout.
Take `COc1ccc(-c2cnc(O)c(C(=O)N/N=C/c3cc(C)cc(C)c3)n2)cc1` [Compound 15, (E)-N′-(3,5-dimethylbenzylidene)-3-hydroxy-6-(4-methoxyphenyl)pyrazine-2-carbohydrazide]: the IC50 in test [1] and in test [2] was > 1 µM throughout.
As to `CCOc1ccc(-c2nc(C(=O)N/N=C/c3cc(OC)cnc3F)cnc2O)cc1` [Compound 16, (E)-6-(4-ethoxyphenyl)-N′-((2-fluoro-5-methoxypyridine-3-yl)methylene)-5-hydroxypyrazine-2-carbohydrazide], the IC50 in test [1] and in test [2] was > 1 µM in each case.
For the compound `CCOc1ccc(-c2nc(C(=O)N/N=C/c3cccc(OC)c3)cnc2O)c(F)c1` [Compound 18, (E)-6-(4-ethoxy-2-fluorophenyl)-5-hydroxy-N′-(3-methoxybenzylidene)pyrazine-2-carbohydrazide], the IC50 in test [1] and in test [2] was > 1 µM throughout.
In the case of `CCOc1ccc(-c2cnc(O)c(C(=O)N/N=C/c3cccc(OC)c3)n2)c(F)c1` [Compound 19, (E)-6-(4-ethoxy-2-fluorophenyl)-3-hydroxy-N′-(3-methoxybenzylidene)pyrazine-2-carbohydrazide], the IC50 in test [1] and in test [2] was > 1 µM in each case.
As to `COc1ccc(-c2cncc(C(=O)N/N=C/c3cc(O)cc(O)c3)n2)cc1` [Compound 20, (E)-N′-(3,5-dihydroxybenzylidene)-6-(4-methoxyphenyl)pyrazine-2-carbohydrazide], the IC50 in test [1] and in test [2] was > 1 µM throughout.
In the case of `COc1ccc(-c2cncc(C(=O)N/N=C/c3cc(O)cc(OC)c3)n2)cc1` [Compound 21, (E)-N′-(3-hydroxy-5-methoxybenzylidene)-6-(4-methoxyphenyl)pyrazine-2-carbohydrazide], the IC50 in test [1] and in test [2] was > 1 µM in each case.
Regarding `COc1ccc(-c2cncc(C(=O)N/N=C/c3ccc(O)cc3)n2)cc1` [Compound 22, (E)-N′-(4-hydroxybenzylidene)-6-(4-methoxyphenyl)pyrazine-2-carbohydrazide], the IC50 in test [1] and in test [2] was > 1 µM in each case.
As for `COc1ccc(-c2cncc(C(=O)N/N=C/c3cccc(O)c3)n2)cc1` [Compound 23, (E)-N′-(3-hydroxybenzylidene)-6-(4-methoxyphenyl)pyrazine-2-carbohydrazide], the IC50 in test [1] and in test [2] was > 1 µM throughout.
As to `COc1ccc(-c2cncc(C(=O)N/N=C/c3ccccc3O)n2)cc1` [Compound 24, (E)-N′-(2-hydroxybenzylidene)-6-(4-methoxyphenyl)pyrazine-2-carbohydrazide], the IC50 in test [1] and in test [2] was > 1 µM in each case.
As to `COc1ccc(-c2cncc(C(=O)N/N=C/c3cc(C)cc(O)c3)n2)cc1` [Compound 25, (E)-N′-(3-hydroxy-5-methylbenzylidene)-6-(4-methoxyphenyl)pyrazine-2-carbohydrazide], the IC50 in test [1] was > 1 µM; in test [2], 0.5 to 1 µM.
Regarding `CCOc1ccc(-c2cncc(C(=O)N/N=C/c3cc(C)cc(O)c3)n2)cc1` [Compound 26, (E)-6-(4-ethoxyphenyl)-N′-(3-hydroxy-5-methylbenzylidene)pyrazine-2-carbohydrazide], the IC50 in test [1] was > 1 µM; in test [2] it was < 0.5 µM.
For `CCOc1ccc(-c2cncc(C(=O)N/N=C/c3cc(O)ccc3F)n2)cc1` [Compound 27, (E)-6-(4-ethoxyphenyl)-N′-(2-fluoro-5-hydroxybenzylidene)pyrazine-2-carbohydrazide], the IC50 in test [1] was > 1 µM; in test [2], 0.5 to 1 µM.
On the same counts, the results for `CCOc1ccc(-c2cncc(C(=O)N/N=C/c3cc(OC)ccc3O)n2)cc1` [Compound 28, (E)-6-(4-ethoxyphenyl)-N′-(2-hydroxy-5-methoxybenzylidene)pyrazine-2-carbohydrazide] are > 1 µM and < 0.5 µM.
In the case of `CCOc1ccc(-c2cncc(C(=O)N/N=C/c3cncc(O)c3)n2)cc1` [Compound 29, (E)-6-(4-ethoxyphenyl)-N′-((5-hydroxypyridine-3-yl)methylene)pyrazine-2-carbohydrazide], the IC50 in test [1] and in test [2] was > 1 µM in each case.
